System: Mus musculus
Experiment: Compound was intravenously injected into Swiss Webstar mice tail vein, the sleeping time was recorded as the time elapsed from the loss of righting reflex
Type: functional

SMILES	Sleeping time [min]
NC(=O)C1=CN(CCC(NC(=O)[C@@H]2CCC(=O)N2)C(=O)N2CCC[C@H]2C(N)=O)C=CC1 (some centres undefined)	~45
NC(=O)C1=CN(CCCCC(NC(=O)[C@@H]2CCC(=O)N2)C(=O)N2CCC[C@H]2C(N)=O)C=CC1 (some centres undefined)	~47
NC(=O)C1=CN(C[C@H](NC(=O)[C@@H]2CCC(=O)N2)C(=O)N2CCC[C@H]2C(N)=O)C=CC1	19.3
NC(=O)C1=CN(CCC[C@H](NC(=O)[C@@H]2CCC(=O)N2)C(=O)N2CCC[C@H]2C(N)=O)C=CC1	~59

From ChEMBL document CHEMBL1134866, “Design, synthesis, and biological evaluation of novel, centrally-acting thyrotropin-releasing hormone analogues” (2002)
